test system: TMD-8 cells; assay: Cell proliferation assay (CellTiter-Glo), TMD-8; type: cell-based; conditions: 5-day treatment; read-out: TMD8 cells growth IC50
Method: Cell proliferation assay: TMD-8 and SU-DHL-1 cells were maintained at 37° C. in a humidified atmosphere with 5% CO2 in the recommended medium and serum concentrations. For cell proliferation assay, cells were seeded in 96-well pates at a density of 5,000 to 10,000 cells per well and cultured overnight at 37° C. in recommended medium supplemented with 5-10% FBS. On the next day, the test articles at various concentrations or vehicle control (0.5% DMSO) were added into cell culture. After 5-day treatment, the growth of cells was assayed by the CellTiter-Glo® Luminestceaent Cell Viability Assay (Promega). IC50 values were calculated using GraphPad Prism by plotting the logarithm of the concentration versus percent inhibition of cell growth as compared with the vehicle control.

**Q.** `CN(C)C/C=C/C(=O)NC1C2CCC1CC(n1cc(-c3ccc(Oc4ccccc4)cc3)c3c(N)n[nH]c(=O)c31)C2` (stereo not shown) [Example 48, (E)-N-[3-[4-amino-7-oxo-3-(4-phenoxyphenyl)-6H-pyrrolo[2,3 d]pyridazin-1-yl]-8-bicyclo[3.2.1]octanyl]-4-(dimethylamino)but-2-enamide] was tested. Which IC50 did it give?
**A.** 10 to 1000 nM

same assay, conditions: Homo sapiens, TMD8, 120 h; 5-day treatment; read-out: TMD8 cells growth IC50

**Q.** For `CC#CC(=O)N1CC[C@@H](n2cc(-c3ccc(Oc4c(F)cccc4Cl)cc3)c3c(N)n[nH]c(=O)c32)C1` [Example 94, (R)-4-amino-1-(1-(but-2-ynoyl)pyrrolidin-3-yl)-3-(4-(2-chloro-6-fluorophenoxy)phenyl)-1H-pyrrolo[2,3-d]pyridazin-7(6H)-one], which IC50 is on record?
**A.** ≤ 10 nM

**Q.** Which IC50 does the source give for `N#CN1CC[C@@H](n2cc(-c3ccc(Oc4ccccc4)cc3)c3c(N)n[nH]c(=O)c32)C1` [Example 107, (R)-3-(4-amino-7-oxo-3-(4-phenoxyphenyl)-6,7-dihydro-1H-pyrrolo[2,3-d]pyridazin-1-yl)pyrrolidine-1-carbonitrile] here?
**A.** 1000 to 100000 nM

**Q.** How did the IC50 turn out when `C=CC(=O)N1CC[C@H](n2cc(-c3ccc(Oc4ccccc4)cc3)c3c(N)n[nH]c(=O)c32)C1` [Example 3, 4-amino-3-(4-phenoxyphenyl)-1-[(3S)-1-prop-2-enoylpyrrolidin-3-yl]-6H-pyrrolo[2,3-d]pyridazin-7-one] was run?
**A.** 10 to 1000 nM

**Q.** `CN(C)C/C=C/C(=O)N1CCC[C@@H](n2cc(-c3ccc(Oc4c(F)cccc4Cl)cc3)c3c(N)n[nH]c(=O)c32)C1` [Example 79, 4-amino-3-[4-(2-chloro-6-fluoro-phenoxy)phenyl]-1-[(3R)-1-[(E)-4-(dimethylamino)but-2-enoyl]-3-piperidyl]-6H-pyrrolo[2,3-d]pyridazin-7-one] was tested. Which IC50 did it give?
**A.** ≤ 10 nM

**Q.** How did the IC50 turn out when `CN(C/C=C/C(=O)N1CCC[C@@H](n2cc(-c3ccc(Oc4ccccc4)cc3)c3c(N)n[nH]c(=O)c32)C1)C(=O)OC(C)(C)C` [Example 17] was run?
**A.** 10 to 1000 nM

**Q.** `CCC(=O)N1CCCC(n2cc(-c3ccc(Oc4ccccc4)cc3)c3c(N)n[nH]c(=O)c32)C1` (stereo not shown) [Example 19, 4-amino-3-(4-phenoxyphenyl)-1-(1-propionylpiperidin-3-yl)-1H-pyrrolo[2,3-d]pyridazin-7(6H)-one] was tested. Which IC50 did it give?
**A.** 10 to 1000 nM

**Q.** `CN(C)C/C=C/C(=O)N1C[C@H](n2cc(-c3ccc(Oc4ccccc4)cc3)c3c(N)n[nH]c(=O)c32)CC(F)(F)C1` [Example 49, 4-amino-1-[(3R)-1-[(E)-4-(dimethylamino)but-2-enoyl]-5,5-difluoro-3-piperidyl]-3-(4-phenoxyphenyl)-6H-pyrrolo[2,3-d]pyridazin-7-one] was tested. Which IC50 did it give?
**A.** 10 to 1000 nM

**Q.** `CN(C)CC#CC(=O)N1CC[C@@H](n2cc(-c3ccc(Oc4ccccc4F)cc3)c3c(N)n[nH]c(=O)c32)C1` [Example 99, (R)-4-amino-1-(1-(4-(dimethylamino)but-2-ynoyl)pyrrolidin-3-yl)-3-(4-(2-fluorophenoxy)phenyl)-1H-pyrrolo[2,3-d]pyridazin-7(6H)-one] was tested. Which IC50 did it give?
**A.** 10 to 1000 nM

**Q.** With `C=CC(=O)N1CCC[C@@H](n2cc(-c3ccc(Oc4ccccc4)cc3)c3c(N)n[nH]c(=O)c32)C1` [Example 1, (R)-1-(1-acryloylpiperidin-3-yl)-4-amino-3-(4-phenoxyphenyl)-1H-pyrrolo[2,3-d]pyridazin-7(6H)-one] as the molecule, how does the IC50 read?
**A.** ≤ 10 nM

**Q.** Which IC50 does the source give for `CC#CC(=O)N1CC[C@@H](n2cc(-c3ccc(Oc4ccccc4)cc3)c3c(N)n[nH]c(=O)c32)C1` [Example 97, (R)-4-amino-1-(1-(but-2-ynoyl)pyrrolidin-3-yl)-3-(4-phenoxyphenyl)-1H-pyrrolo[2,3-d]pyridazin-7(6H)-one] here?
**A.** ≤ 10 nM

**Q.** For `CN(C)C/C=C/C(=O)Nc1cccc(-n2cc(-c3ccc(Oc4ccccc4F)cc3)c3c(N)n[nH]c(=O)c32)c1` [Example 92, (E)-N-[3-[4-amino-3-[4-(2-fluorophenoxy)phenyl]-7-oxo-6H-pyrrolo[2,3-d]pyridazin-1-yl]phenyl]-4-(dimethylamino)but-2-enamide], which IC50 is on record?
**A.** ≤ 10 nM

**Q.** With `N#CN1CCC[C@@H](n2cc(-c3ccc(Oc4ccccc4)c(F)c3)c3c(N)n[nH]c(=O)c32)C1` [Example 85, (R)-3-(4-amino-3-(3-fluoro-4-phenoxyphenyl)-7-oxo-6,7-dihydro-1H-pyrrolo[2,3-d]pyridazin-1-yl)piperidine-1-carbonitrile] as the molecule, how does the IC50 read?
**A.** ≤ 10 nM

Source: US10323037B2, “Aminopyridazinone compounds as protein kinase inhibitors” (Jiangsu Hengrui Medicine Co., Ltd., priority 2014, dated 2019)
